Data reported in US20220362386A1, “LIQUID COMPOSITIONS COMPRISING A LEVODOPA AMINO ACID CONJUGATE AND USES THEREOF” (NeuroDerm, Ltd., priority 2019, published 2022).
Where a name gives a salt, the structure may show the parent alone. Read-outs that look alike come from different tables or passages of the source. Non-standard residues stand in square brackets, D forms with d. Residues, ends and D or L forms follow the SMILES beside them. Dopa = N[C@@H](Cc1ccc(O)c(O)c1)C(=O)O

Legend:
[1] = In-vitro metabolism of LDAA compounds using liver microsomes; format: in vitro ADME, human; conditions: for half-life at 0.1 μM / microsomal CLint at 0.1 μM: both sexes, human, pooled human liver microsomes; for half-life at 0.1 μM: pH 7.4, 1.0E−07M, 0.1 mg/mL microsomal protein; for microsomal CLint at 0.1 μM: pH 7.4, calculated from the half-life; for microsomal CLint at 0.1 μM / % Compound Remaining 1st / % Compound Remaining 2nd / % Compound Remaining Mean: 1.0E−07M
Method: The stability of test compounds in pooled human liver microsomes was determined on 96-well plates, wherein the test compounds were quantified at five time points by HPLC-MS/MS analysis. The assay matrix included mixed gender and a pool of 50 human liver microsomes, wherein the final microsomal protein concentration was 0.1 mg/mL. The test concentration was 0.1 μM with 0.01% DMSO, 0.25% acetonitrile and 0.25% methanol.
Each test compound was pre-incubated for five minutes with pooled liver microsomes in phosphate buffer (pH 7.4) in a 37° C. shaking water-bath. The reaction was initiated by adding a nicotinamide adenine dinucleotide phosphate (NADPH)-generating system and incubating for 0, 15, 30, 45, and 60 min. The reaction was stopped by transferring the incubation mixture to acetonitrile/methanol. Samples were then mixed and centrifuged, wherein the supernatants were used for HPLC-MS/MS analysis.
In each assay the four reference compounds propranolol, imipramine, verapamil and terfenadine were tested, wherein the propranolol and the imipramine are known to be relatively stable, while the verapamil and the terfenadine are known to be readily metabolized in human liver microsomes.
All samples were analyzed by HPLC-MS/MS using selected reaction monitoring. The HPLC system consisted of a binary LC pump with autosampler, a C-18 column, and a gradient. The conditions were adjusted when necessary.
Peak areas corresponding to the test compound were recorded. The amount of each compound remaining was calculated by comparing the peak area at each time point to time zero. The half-life is calculated from the slope of the initial linear range of the logarithmic curve of compound remaining (%) vs. time, assuming first order kinetics. In addition, the intrinsic clearance (Clint) was calculated from the half-life using the following equation:
Clint(μL/min/mg protein)=0.693/(t1/2×protein concentration)
The results of the in-vitro human liver microsome metabolism tests of various LDAA compounds (10^−7M), in their TFA salt forms, are provided in FIG. 1 and in Table 17, which presents the % of the compound remaining at times 0, 15, 30, 45 and 60 minutes, two half-life measurements and the Clint, calculated as detailed above.

[2] = Protein binding, solid phase extraction (SPE) method; format: in vitro ADME, human; conditions: human, human plasma, 1.0E−05M, SPE sample preparation
Method: (§1) A solid phase extraction (SPE) method was used to prepare samples for several compounds in the plasma protein binding assay. The following SPE protocols were followed:
(§2) Sorbent: Waters Oasis MCX 96—well MicroElution Plate—Cat #186001830BA Sample: 200 μL of plasma spiked at 10 μM with test compound. Sample was diluted 1:1 with 4% phosphoric acid in water and mixed for 15 minutes 1) Place Oasis plate on vacuum manifold and set vacuum to 5″ Hg; 2) Condition with 200 μL methanol; 3) Equilibrate with 200 μL water; 4) Load dilute plasma sample; 5) Wash with 200 μL 2% formic acid in water; 6) Wash with 400 μL methanol; and 7) Elute with 100 μL 5% NH4OH in methanol.
(§3) Sorbent: Waters Oasis MAX 96-well MicroElution plate—Cat #186001829 Sample: 200 μL of plasma spiked at 10 μM with test compound. Sample was diluted 1:1 with 4% phosphoric acid in water and mixed for 15 minutes 1) Place Oasis plate on vacuum manifold and set vacuum to 5″ Hg; 2) Condition with 200 μL methanol; 3) Equilibrate with 200 μL water; 4) Load dilute plasma sample; 5) Wash with 200 μL 5% NH4OH in water; 6) Wash with 400 μL methanol; and 7) Elute with 100 μL 2% formic acid in methanol.

[3] = system: human plasma; test: as above; format: in vitro ADME; conditions: 1.0E−05M; SPE sample preparation
Method: as §1, §2, §3

[4] = In-vitro absorption, Caco-2 A-B permeability; format: in vitro ADME, human; conditions: human, Caco-2, pH 7.4, Caco-2 A-B, without verapamil; for Papp A→B at 60 min, 10 μM: 1.0E−05M
Method: (§4) Conditions may be adjusted when necessary.
(§5) D denotes donor and R is receiver. […] V is the volume of the donor or receiver.
(§6) The test was performed with and without verapamil, which is a permeation inhibitor, and the results are presented in Tables 22 (without verapamil) and 34 (with verapamil).

[5] = system: P-gp; test: In-vitro absorption, Caco-2 A-B permeability; format: in vitro ADME, human; conditions: human, Caco-2, pH 7.4, with verapamil 100 μM on both the A and B sides, Caco-2 A-B, in the presence of verapamil
Method: as §4, §5, §6

[6] = read-out: Half-Life (minute) 1st
[7] = read-out: Half-Life (minute) 2nd
[8] = read-out: Half-Life (minute) Mean
[9] = read-out: Percent Recovery Mean

Compound | half-life at 0.1 μM [1, 6] [min] | half-life at 0.1 μM [1, 7] [min] | half-life at 0.1 μM [1, 8] [min] | microsomal CLint at 0.1 μM [1] [µL/min/mg] | % Compound Remaining 1st ([1]; incubation time 0 minutes) [%] | % Compound Remaining 2nd ([1]; incubation time 0 minutes) [%] | % Compound Remaining Mean ([1]; incubation time 0 minutes) [%] | % Compound Remaining 1st ([1]; incubation time 15 minutes) [%] | % Compound Remaining 2nd ([1]; incubation time 15 minutes) | % Compound Remaining Mean ([1]; incubation time 15 minutes) [%] | % Compound Remaining 1st ([1]; incubation time 30 minutes) [%] | % Compound Remaining 2nd ([1]; incubation time 30 minutes) | % Compound Remaining Mean ([1]; incubation time 30 minutes) [%] | % Compound Remaining 1st ([1]; incubation time 45 minutes) [%] | % Compound Remaining 2nd ([1]; incubation time 45 minutes) [%] | % Compound Remaining Mean ([1]; incubation time 45 minutes) [%] | % Compound Remaining 1st ([1]; incubation time 60 minutes) [%] | % Compound Remaining 2nd ([1]; incubation time 60 minutes) [%] | % Compound Remaining Mean ([1]; incubation time 60 minutes) [%] | Papp A→B at 60 min, 10 μM ([4]; read-out: Permeability 1st) [×10⁻⁶ cm/s] | further results
N[C@@H](Cc1ccc(O)c(O)c1)C(=O)O [LD (control), L-3,4-dihydroxyphenylalanine, reference compound] | 116 | 131 | > 60 | < 116 | 100 | 100 | 100 | 102.5 | 97.8% | 100 | 93.2 | 89.3% | 91 | 80.1 | 78 | 79 | 72.3 | 75.2 | 74 | 1.15 | recovery at 10 μM ([2]; read-out: % Recovery 1st): 59%; recovery at 10 μM ([2]; read-out: % Recovery 2nd): 78%; recovery at 10 μM ([2]; read-out: % Recovery Mean): 68%; % Protein Bound 1st [3]: 30.4%; % Protein Bound 2nd [3]: 20.2%; % Protein Bound Mean [3]: 25%; Papp A→B at 60 min, 10 μM ([4]; read-out: Permeability 2nd): 1.25 ×10⁻⁶ cm/s; Papp A→B at 60 min, 10 μM ([4]; read-out: Permeability Mean): 1.2 ×10⁻⁶ cm/s; recovery at 60 min, 10 μM ([4]; read-out: Percent Recovery 1st): 37%; recovery at 60 min, 10 μM ([4]; read-out: Percent Recovery 2nd): 22%; recovery at 60 min, 10 μM [4, 9]: 29%; recovery at 60 min, 10 μM ([5]; read-out: Percent Recovery 1st): 63%; recovery at 60 min, 10 μM ([5]; read-out: Percent Recovery 2nd): 41%; recovery at 60 min, 10 μM [5, 9]: 52%
NC(=O)CC[C@H](NC(=O)[C@@H](N)Cc1ccc(O)c(O)c1)C(=O)O [LD-Gln TFA salt, Levodopa Glutamine TFA Salt] (H-[Dopa]-Gln-OH) | 155 | 158 | > 60 | < 116 | 100 | 100 | 100 | 103.4 | {121.2% | 103 | 68.2 | {139.0% | 68 | 81.8 | 94.1 | 88 | 80.4 | 72.8 | 77 | 1.83 | Papp A→B at 60 min, 10 μM ([4]; read-out: Permeability 2nd): 1.47 ×10⁻⁶ cm/s; Papp A→B at 60 min, 10 μM ([4]; read-out: Permeability Mean): 1.7 ×10⁻⁶ cm/s; recovery at 60 min, 10 μM ([4]; read-out: Percent Recovery 1st): 68%; recovery at 60 min, 10 μM ([4]; read-out: Percent Recovery 2nd): 70%; recovery at 60 min, 10 μM [4, 9]: 69%; recovery at 60 min, 10 μM ([5]; read-out: Percent Recovery 1st): 74%; recovery at 60 min, 10 μM ([5]; read-out: Percent Recovery 2nd): 69%; recovery at 60 min, 10 μM [5, 9]: 71%
N[C@@H](Cc1ccc(O)c(O)c1)C(=O)N[C@@H](Cc1c[nH]c2ccccc12)C(=O)O [LD-Trp TFA salt, Levodopa Tryptophan] (H-[Dopa]-Trp-OH) | 64 | 61.4 | > 60 | < 116 | 100 | 100 | 100 | 108.6 | {96.6} % | 109 | 115.2 | 92.2% | 104 | 70.5 | 63.1 | 67 | 55.1 | 51.6 | 53 | 0.04 | Papp A→B at 60 min, 10 μM ([4]; read-out: Permeability 2nd): 0.03 ×10⁻⁶ cm/s; recovery at 60 min, 10 μM ([4]; read-out: Percent Recovery 1st): 52%; recovery at 60 min, 10 μM ([4]; read-out: Percent Recovery 2nd): 51%; recovery at 60 min, 10 μM [4, 9]: 51%; recovery at 60 min, 10 μM ([5]; read-out: Percent Recovery 1st): 50%; recovery at 60 min, 10 μM ([5]; read-out: Percent Recovery 2nd): 45%; recovery at 60 min, 10 μM [5, 9]: 47%
